This is an account of results in US20240374628A1 (Whispergenics. Inc., priority 2021, published 2024).

The subject of one assay is BIRC5 expression. Nature of the assay: Cardiac glycosides that inhibit BIRC5 expression in colorectal cancer. The class given is cell-based.
Assay [1] concerns human colon cancer cell lines (CCD-18Co, Caco2, HT29). Nature of the assay: CellTiter-Glo cell viability, three human colon cancer cell lines. It is filed as cell-based. As to conditions: dose-response curves, 48 h, FIGS. 1-3. On the procedure: Cell lines: Human colon cancer cell lines CCD-18Co and Caco2 (American Type Culture Collection [ATCC], Bethesda, MD) were maintained in Eagle's Minimum Essential Medium (Thermo Fisher Scientific, MA) supplemented with 100,000 U/L of penicillin, 100,000 μg/L of streptomycin, and 20% fetal bovine serum (FBS). HT29 (American Type Culture Collection [ATCC], Bethesda, MD) was maintained in McCoy's 5a Medium Modified (Thermo Fisher Scientific, MA) supplemented with 100,000 U/L of penicillin, 100,000 μg/L of streptomycin, and 10% fetal bovine serum (FBS). […] All cells were maintained in Eagles Medium as described above.
(§1) The cells were subjected to cell viability assays using The CellTiter-Glo luminescent cell viability kit (Promega, catalog number: G7570). luminescence was measured using microplate luminometer (luminoskan™ ascent, Thermo-Fisher Scientific, MA). Background luminescence was measured in medium without cells and subtracted from experimental values.
For orientation: ATP-based viability assays read luminescence as a measure of living cells.

In a further assay the test system is Caco2. Description: CellTiter-Glo cell viability, Caco2. It is filed as cell-based, human. As to conditions: 48 h, dose curve 625 μM-40000 μM, FIG. 3. On the procedure:
(§2) Cell lines: Human colon cancer cell lines CCD-18Co and Caco2 (American Type Culture Collection [ATCC], Bethesda, MD) were maintained in Eagle's Minimum Essential Medium (Thermo Fisher Scientific, MA) supplemented with 100,000 U/L of penicillin, 100,000 μg/L of streptomycin, and 20% fetal bovine serum (FBS). HT29 (American Type Culture Collection [ATCC], Bethesda, MD) was maintained in McCoy's 5a Medium Modified (Thermo Fisher Scientific, MA) supplemented with 100,000 U/L of penicillin, 100,000 μg/L of streptomycin, and 10% fetal bovine serum (FBS). The following cells were also tested: MDA 231 Breast Cancer Cells, U87 Glioblastoma Cells, U251 Glioblastoma Cells and Dul45 Prostate Cancer Cells. All cells were maintained in Eagles Medium as described above.
as §1

Another assay has as its system HT29. Nature of the assay: CellTiter-Glo cell viability, HT29. The class given is cell-based, human. The note with it: 48 h, dose curve 12.5 nM-800 nM, FIG. 1. On the procedure:
as §2, §1

With `C[C@]12CC[C@H](O)C[C@H]1CC[C@@H]1[C@@H]2CC[C@]2(C)[C@@H](c3ccc(=O)oc3)CC[C@]12O` [bufalin], the “inhibition of BIRC5 expression” value with BIRC5 expression is given as “inhibit BIRC5 expression”.
The same measure, in the same setting: the result for `C[C@@H]1O[C@@H](O[C@H]2C[C@@H](O)[C@]3(CO)[C@H]4[C@H](O)C[C@]5(C)[C@@H](C6=CC(=O)OC6)CC[C@]5(O)[C@@H]4CC[C@]3(O)C2)[C@H](O)[C@H](O)[C@H]1O` [Ouabain] reads “inhibit BIRC5 expression”; that for `CC(=O)O[C@H]1C[C@H](O[C@H]2[C@@H](O)C[C@H](O[C@H]3[C@@H](O)C[C@H](O[C@H]4CC[C@@]5(C)[C@H](CC[C@@H]6[C@@H]5C[C@@H](O)[C@]5(C)[C@@H](C7=CC(=O)OC7)CC[C@]65O)C4)O[C@@H]3C)O[C@@H]2C)O[C@H](C)[C@H]1O[C@@H]1O[C@H](CO)[C@@H](O)[C@H](O)[C@H]1O` [Lanatoside C], “inhibit BIRC5 expression”.
Consider `CN(C)C(=N)N=C(N)N` [Metformin], for which the “cell viability, single drug alone” value in assay [1] is given as “reduced cell viability to varying degrees”. For the same molecule, the “sensitivity of cell viability” value in the assay with Caco2 is “sensitive”.
For the molecule `C[C@H]1O[C@@H](O[C@H]2[C@@H](O)C[C@H](O[C@H]3[C@@H](O)C[C@H](O[C@H]4CC[C@@]5(C)[C@H](CC[C@@H]6[C@@H]5C[C@@H](O)[C@]5(C)[C@@H](C7=CC(=O)OC7)CC[C@]65O)C4)O[C@@H]3C)O[C@@H]2C)C[C@H](O)[C@@H]1O` [Digoxin], the “cell viability, single drug alone” value in assay [1] is reported as “reduced cell viability to varying degrees”. Besides, the “inhibition of BIRC5 expression” value in the assay on BIRC5 expression was “inhibit BIRC5 expression”. Besides, in the assay on HT29, the “sensitivity of cell viability” value is listed as “very sensitive”.
In the case of `C[C@]12CC[C@H](O)C[C@H]1CC[C@@H]1[C@@H]2CC[C@]2(C)[C@@H](C3=CC(=O)OC3)CC[C@]12O` [Digitoxigenin], the “inhibition of BIRC5 expression” value in the assay with BIRC5 expression was “inhibit BIRC5 expression”.
